In the assay the test system is Multidrug Resistant Acinetobacter baumannii Isolates. Put plainly: MIC of the micro-emulsions by broth dilution. Format: cell-based. As to the method:
Nine sterile 7 mL PJ tubes were arranged in a rack in a row. Each tube contained one mL sterile MHB. Seven tubes were labeled as 7.847 mg+256 μg/mL, 3.923 mg+128 μg/mL, 1.961 mg+64 μg/mL, 0.980 mg+32 μg/mL, 0.490 mg+16 μg/mL, 0.245 mg+8 μg/mL and 0.122 mg+4 μg/mL. The eighth and ninth tubes were labeled as positive and negative controls, respectively.
The micro-emulsion made according to Example 1 was serially diluted to give two-fold dilutions as follows: one mL of the micro-emulsion of Example 1 was dispensed in the first tube (labeled as 7.847 mg+256 μg/mL) to give a concentration of 15.69 mg+512 μg drug/mL MHB. One mL of the first tube was added to the second tube (labeled as 3.923 mg+128 μg/mL) to give a concentration of 7.847 mg+256 μg drug/mL MHB. One mL of the second tube was transferred to the third tube (labeled as 1.961 mg+64 μg/mL) to give a concentration of 3.923 mg+128 drug/mL MHB. One mL of the third tube was added to the fourth tube (labeled as 0.980 mg+32 μg/mL) to give a concentration of 1.961 mg+64 drug/mL MHB. One mL of the fourth tube was dispensed in the fifth tube (labeled as 0.490 mg+16 μg/mL) to give a concentration of 0.980 mg+32 drug/mL MHB. One mL of the fifth tube was dispensed in the sixth tube (labeled as 0.245 mg+8 μg/mL) to give a concentration of 0.490 mg+16 μg drug/mL MHB. One mL of the sixth tube was added to the seventh tube (labeled as 0.122 mg+4 μg/mL) to give a concentration of 0.245 mg+8 μg drug/mL MHB. One mL of the content of the seventh tube was discarded. Inoculum suspensions (at 1-2×10^8 CFU/mL) were diluted 1:100 in MHB to obtain 1×10^6 CFU/mL. One mL of the diluted inoculum suspension (1×10^6 CFU/mL) was transferred to each tube except tube number nine.
Another nine sterile 7 mL PJ tubes were arranged in a rack in a row. Each tube contained one mL sterile MHB. […]
All inoculated tubes were incubated for 16-20 hours at 37° C. aerobically. After this incubation period, MIC was determined manually by observing the lowest concentration of antimicrobial agent showing no visible growth (turbidity). […]

On to `CC1=CC(=O)C(C(C)C)=CC1=O` [Thymoquinone, 2-isopropyl-5-methylbenzo-1,4-quinone], for which the minimum inhibitory concentration (MIC) (Isolate 121) came out at 64 µg/mL, the MIC (Isolate 127) worked out at 32 µg/mL and the minimal inhibitory concentration (MIC) (Isolate 129) worked out at 32 µg/mL.

In general, MIC refers to the lowest concentration that inhibits growth of the organism.

The values above are taken from US11617726B2, “Method for preventing, treating, or ameliorating a microbial infection” (priority 2018, dated 2023).
